Measured values: patent publication US7355047B2, “Substituted quinolone carboxylic acids, their derivatives, site of action, and uses thereof” (The Regents of the University of California, priority 2002, dated 2008)

Assays:
[1] = test system: BZ receptors; experiment: [3H]Flunitrazepam binding, rat cortex; settings: 0.2 nM [3H]flunitrazepam, FIG. 6
Experimental: [^3H]Flunitrazepam binding: assays were carried out under identical conditions, using an identical tissue preparation, as those used in the [^35S]TBPS binding assays with the exception that 1 μM GABA was added to all samples instead of 5 μM GABA. [^3H]Flunitrazepam, 0.2 nM (75 Ci/mmol, New England Nuclear, Boston, Mass.) was used to label BZ sites. Non-specific binding is defined as binding in the presence of 1 μM clonazepam. The data were evaluated by nonlinear regression to obtain IC50 and EC50 values.

[2] = test system: GABAA receptor complex (GRC); experiment: [35S]TBPS binding dissociation, mouse forebrain; settings: 2 nM [35S]TBPS
[3] = test system: GABA-gated chloride channels; experiment: Electrophysiological Assay 1, whole cell patch-clamp of hippocampal neurons; type: cell-based; settings: C3 5 μM; GABA 10 μM; embryonic rat hippocampal neurons; FIG. 1
Experimental: Pregnant Sprague-Dawley rats, incubating embryos of 17-19 days gestation, were killed by cervical dislocation. The embryos were removed under aseptic conditions and the brains quickly excised and placed in Hank's balanced salt solution (HBSS, Gibco) at ambient room temperature (18-22° C.). The hippocampi were dissected out and chopped into fragments (˜2 mm^3) and transferred into an enzyme solution containing (in mM): NaCl 116, KCl 5.4, NaHCO3 26, NaH2PO4 1, CaCl2 1.5, MgSO4 1, EDTA 0.5, glucose 25, cysteine 1, and papain 20 U/ml (Sigma) and incubated at 37° C., 5% CO2, 100% relative humidity for 1 hr. Tissue fragments were washed in HBSS containing 1 mg/ml of bovine serum albumin (BSA) and 1 mg/ml of ovomucoid (both Sigma). Tissue was transferred into a further 3-4 ml of this solution and gently triturated into a single cell suspension using a fire-polished Pasteur pipette. The single cell suspension was layered on to 5 ml HBSS containing 10 mg/ml of BSA and 10 mg/ml of ovomucoid and centrifuged at 100× g for 10 min. […]
Agonist evoked membrane currents were recorded from hippocampal neurons using the whole cell configuration of the patch-clamp technique. […] Agonist-evoked whole cell currents were measured at their peak. Responses in the presence of drugs expressed as the arithmetic mean ±SEM of responses in the absence (control) or drugs.

[4] = test system: Male NSA mice; experiment: Mouse Light-Dark Transition Model of Anxiety; type: in vivo; settings: compared with Diazepam (DZP), FIG. 3
Experimental: Male NSA mice (25-30 g) are used. The apparatus consists of an open-topped box divided into small and large area by a partition that has a hole at floor level. The small compartment is painted black and the large compartment white. The white compartment was illuminated with light and the black compartment with red light. The time spent in the light versus dark compartments and the number of transitions between compartments is recorded during a 5 min test session. Vehicle or test compounds are administered 30 min prior to the test. Diazepam is administered (i.p.) at 2 mg/kg as the positive control. Anti-anxiety agents will reduce the time the animals will spend in the dark compartment and increase the number of transitions between the two compartments.

[5] = test system: 24 hour thirsted rats; experiment: Vogel Model of Anxiety (Vogel Conflict); type: in vivo, rat; settings: compared with Diazepam (DZP), FIG. 4
Experimental: Adult male rats are randomly divided into groups of 6 rats/group. Animals were deprived of water overnight (24 hr). Food was freely available at time of thirsting. Thirty minutes after injection (i.p.) of test drug, positive control drug (diazepam, 1 mg/kg), or vehicle control rats are placed in a square Plexiglas box containing a stainless steel bottom connected to one side of a drinkometer circuit. At the other side of the drinkometer circuit a water bottle, placed so the drink tube extends into the Plexiglas box, is connected. When a subject drinks from the bottle the circuit is closed and an electric shock is delivered at the tube after seven licks are recorded. The number of licks in a 3 min session is recorded. Anti-anxiety agents will increase the number of shocks the animal is willing to endure to acquire water.

CCn1cc(C(=O)O)c(=O)c2cc(NC3CCCc4ccccc43)c(Cl)cc21 (stereo not drawn) [compound 3, 7-chloro-1-ethyl-6-(1,2,3,4-tetrahydronaphthyl-1-amino)-4-oxo-1,4-dihydroquinoline-3-carboxylic acid]
effect on [3H]flunitrazepam binding to BZ receptors [1]: allosterically coupled to and does not act directly on the BZ receptor | dissociation of [35S]TBPS binding in absence or presence of ivermectin ([2]; initiated by 10 μM compound 3, 10 μM ivermectin, FIG. 12): do not share a common site of action | dissociation of [35S]TBPS binding in absence or presence of mefenamic acid ([2]; initiated by 10 μM compound 3, 10 μM mefenamic acid, FIG. 13): do not share a common site of action | potentiating effect on GABA induced chloride currents [3]: positive efficacy modulator of GABA-gated chloride channels | anti-anxiety effects, time spent in the dark [4]: comparable to that of DZP | anti-anxiety effects, punished responding (number of licks during a 3 minute period) [5]: comparable to that of DZP
